{
  "source": "PubChem BioAssay (NCI)",
  "test_in_all_cases": "DTP human tumour cell line panel, 384-well format",
  "key": {"[1]": {"system": "SK-MEL-28 melanoma"}, "[2]": {"system": "IGROV1 ovarian"}, "[3]": {"system": "PC-3 prostate"}, "[4]": {"system": "T-47D breast"}, "[5]": {"system": "MDA-MB-468 breast"}, "[6]": {"system": "NCI-H460 NSCLC"}, "[7]": {"system": "MALME-3M melanoma"}, "[8]": {"system": "HCT-15 colon"}, "[9]": {"system": "CAKI-1 renal"}, "[10]": {"system": "HOP-92 NSCLC"}, "[11]": {"system": "UO-31 renal"}, "[12]": {"system": "MOLT-4 leukemia"}, "[13]": {"system": "A549 NSCLC"}, "[14]": {"system": "RPMI-8226 leukemia"}, "[15]": {"system": "U251 glioblastoma"}, "[16]": {"system": "HCC-2998 colon"}, "[17]": {"system": "KM12 colon"}, "[18]": {"system": "LOX IMVI melanoma"}, "[19]": {"system": "CCRF-CEM leukemia"}, "[20]": {"system": "DU-145 prostate"}, "[21]": {"system": "OVCAR-3 ovarian"}, "[22]": {"system": "TK-10 renal"}, "[23]": {"system": "HOP-62 NSCLC"}, "[24]": {"system": "SF-539 CNS"}, "[25]": {"system": "786-0 renal"}, "[26]": {"system": "EKVX NSCLC"}, "[27]": {"system": "NCI-H23 lung"}, "[28]": {"system": "HS 578T breast"}, "[29]": {"system": "SF-295 CNS"}},
  "note": "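GI50: concentration for 50% inhibition of growth. Definition used: TGI = concentration required for complete inhibition of growth.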",
  "data": [
    {"compound": "NCC(=O)Nc1ccc(-n2nc(C(F)(F)F)cc2-c2ccc3c(ccc4ccccc43)c2)cc1", "values": [
      {"measurement": "GI50", "setting": "[1]", "value": 1120, "unit": "nM"},
      {"measurement": "TGI", "setting": "[1]", "value": 2320, "unit": "nM"},
      {"measurement": "GI50", "setting": "[2]", "value": 1090, "unit": "nM"},
      {"measurement": "TGI", "setting": "[2]", "value": 2300, "unit": "nM"},
      {"measurement": "GI50", "setting": "[3]", "value": 1190, "unit": "nM"},
      {"measurement": "TGI", "setting": "[3]", "value": 2430, "unit": "nM"},
      {"measurement": "GI50", "setting": "[4]", "value": 1540, "unit": "nM"},
      {"measurement": "TGI", "setting": "[4]", "value": 2880, "unit": "nM"},
      {"measurement": "GI50", "setting": "[5]", "value": 1530, "unit": "nM"},
      {"measurement": "TGI", "setting": "[5]", "value": 2870, "unit": "nM"},
      {"measurement": "GI50", "setting": "[6]", "value": 296, "unit": "nM"},
      {"measurement": "TGI", "setting": "[6]", "value": 1440, "unit": "nM"},
      {"measurement": "GI50", "setting": "[7]", "value": 1160, "unit": "nM"},
      {"measurement": "TGI", "setting": "[7]", "value": 2390, "unit": "nM"},
      {"measurement": "GI50", "setting": "[8]", "value": 82.1, "unit": "nM"},
      {"measurement": "TGI", "setting": "[8]", "value": 1750, "unit": "nM"},
      {"measurement": "GI50", "setting": "[9]", "value": 1180, "unit": "nM"},
      {"measurement": "TGI", "setting": "[9]", "value": 2430, "unit": "nM"},
      {"measurement": "GI50", "setting": "[10]", "value": 1120, "unit": "nM"},
      {"measurement": "TGI", "setting": "[10]", "value": 2330, "unit": "nM"},
      {"measurement": "GI50", "setting": "[11]", "value": 1390, "unit": "nM"},
      {"measurement": "TGI", "setting": "[11]", "value": 2740, "unit": "nM"},
      {"measurement": "GI50", "setting": "[12]", "value": 44.1, "unit": "nM"},
      {"measurement": "TGI", "setting": "[12]", "value": 148, "unit": "nM"},
      {"measurement": "GI50", "setting": "[13]", "value": 1040, "unit": "nM"},
      {"measurement": "TGI", "setting": "[13]", "value": 2230, "unit": "nM"},
      {"measurement": "GI50", "setting": "[14]", "value": 213, "unit": "nM"},
      {"measurement": "TGI", "setting": "[14]", "value": 686, "unit": "nM"},
      {"measurement": "GI50", "setting": "[15]", "value": 1190, "unit": "nM"},
      {"measurement": "TGI", "setting": "[15]", "value": 2460, "unit": "nM"},
      {"measurement": "GI50", "setting": "[16]", "value": 1060, "unit": "nM"},
      {"measurement": "TGI", "setting": "[16]", "value": 2250, "unit": "nM"},
      {"measurement": "GI50", "setting": "[17]", "value": 1140, "unit": "nM"},
      {"measurement": "TGI", "setting": "[17]", "value": 2370, "unit": "nM"},
      {"measurement": "GI50", "setting": "[18]", "value": 396, "unit": "nM"},
      {"measurement": "TGI", "setting": "[18]", "value": 1470, "unit": "nM"},
      {"measurement": "GI50", "setting": "[19]", "value": 218, "unit": "nM"},
      {"measurement": "TGI", "setting": "[19]", "value": 1720, "unit": "nM"},
      {"measurement": "GI50", "setting": "[20]", "value": 1310, "unit": "nM"},
      {"measurement": "TGI", "setting": "[20]", "value": 2610, "unit": "nM"},
      {"measurement": "GI50", "setting": "[21]", "value": 1570, "unit": "nM"},
      {"measurement": "TGI", "setting": "[21]", "value": 2920, "unit": "nM"},
      {"measurement": "GI50", "setting": "[22]", "value": 1320, "unit": "nM"},
      {"measurement": "TGI", "setting": "[22]", "value": 2610, "unit": "nM"},
      {"measurement": "GI50", "setting": "[23]", "value": 1130, "unit": "nM"},
      {"measurement": "TGI", "setting": "[23]", "value": 2360, "unit": "nM"},
      {"measurement": "GI50", "setting": "[24]", "value": 1160, "unit": "nM"},
      {"measurement": "TGI", "setting": "[24]", "value": 2400, "unit": "nM"},
      {"measurement": "GI50", "setting": "[25]", "value": 1020, "unit": "nM"},
      {"measurement": "TGI", "setting": "[25]", "value": 2200, "unit": "nM"},
      {"measurement": "GI50", "setting": "[26]", "value": 1770, "unit": "nM"},
      {"measurement": "TGI", "setting": "[26]", "value": 3170, "unit": "nM"},
      {"measurement": "GI50", "setting": "[27]", "value": 1760, "unit": "nM"},
      {"measurement": "TGI", "setting": "[27]", "value": 3150, "unit": "nM"},
      {"measurement": "GI50", "setting": "[28]", "value": 1760, "unit": "nM"},
      {"measurement": "TGI", "setting": "[28]", "value": 3160, "unit": "nM"},
      {"measurement": "GI50", "setting": "[29]", "value": 766, "unit": "nM"},
      {"measurement": "TGI", "setting": "[29]", "value": 2040, "unit": "nM"}
    ]}
  ]
}
